Results: patent US20230053540A1, “TREATMENT OF LIVER INJURY” (Massachusetts Institute of Technology, priority 2019, published 2023)

Test system: hepatocytes
Assay: Seq-Well scRNA-Seq of hepatocytes after APAP overdose (signature scores, DEG vs untreated)
Type: in vivo, mouse
Conditions: A6 vs UT

Structure (SMILES): CC(=O)Nc1ccc(O)cc1 [APAP, acetaminophen]
- Med13 A6logFC: 0.2949
- Med13 avg_logFC: 0.2949
- Med13 pct.1: 0.325
- Megf9 A6logFC: 0.2769
- Megf9 avg_logFC: 0.2769
- Megf9 pct.1: 0.289
- Mettl7b avg_logFC: −0.4527
- Mettl7b pct.1: 0.647
- Mettl20 avg_logFC: −0.3314
- Mettl20 pct.1: 0.119
- Mfsd2a avg_logFC: 0.6661
- Mgea5 A6logFC: 0.3263
- Mgea5 avg_logFC: 0.3263
- Mgea5 pct.1: 0.413
- Mgst1 avg_logFC: −1.06
- Minos1 avg_logFC: −0.4555
- Minos1 pct.1: 0.332
- Mlycd avg_logFC: −0.2909
- Mlycd pct.1: 0.329
- Mmp8 avg_logFC: 0.359
- Mmp14 avg_logFC: 0.2889
- Mmp14 pct.1: 0.253
- Mpc2 avg_logFC: −0.4828
- Mpc2 pct.1: 0.599
- Mpeg1 avg_logFC: 0.4935
- Mpeg1 pct.1: 0.263
- Mrap avg_logFC: 0.8841
- Mrp63 avg_logFC: −0.4422
- Mrp63 pct.1: 0.277
- Mrpl11 A6logFC: −0.2685
- Mrpl15 A6logFC: −0.2912
- Mrpl20 A6logFC: −0.3093
- Mrpl20 avg_logFC: −0.3093
- Mrpl20 pct.1: 0.301
- Mrpl28 A6logFC: −0.2699
- Mrpl28 avg_logFC: −0.2699
- Mrpl28 pct.1: 0.229
- Mrpl33 A6logFC: −0.2654
- Mrpl34 A6logFC: −0.2838
- Mrpl41 A6logFC: −0.2674
- Mrpl42 A6logFC: −0.2845
- Mrps12 A6logFC: −0.2504
- Mrps12 avg_logFC: −0.2504
- Mrps12 pct.1: 0.193
- Mrps24 avg_logFC: −0.3904
- Mrps24 pct.1: 0.31
- Msrb1 avg_logFC: −0.599
- Mt1 avg_logFC: 2.388
- Mt2 avg_logFC: 2.063
- Mthfd2 avg_logFC: 0.2624
- Mug2 avg_logFC: 0.3683
- Mug2 pct.1: 0.776
- Mup3 avg_logFC: −0.7035
- Mup4 avg_logFC: −0.9953
- Mup5 avg_logFC: −1.237
- Mup6 avg_logFC: −1.872
- Mup7 avg_logFC: −0.9414
- Mup8 avg_logFC: −0.7526
- Mup8 pct.1: 0.098
- Mup9 avg_logFC: −2.004
- Mup11 avg_logFC: −3.214
- Mup12 avg_logFC: −1.27
- Mup15 avg_logFC: −1.316
- Mup16 avg_logFC: −1.602
- Mup17 avg_logFC: −2.354
- Mup18 avg_logFC: −1.628
- Mup19 avg_logFC: −2.396
- Mup21 avg_logFC: −0.8272
- Mvd A6logFC: −0.2704
- Mxd1 A6logFC: 0.2978
- Mybbp1a avg_logFC: 0.4312
- Mybbp1a pct.1: 0.396
- Myeov2 A6logFC: −0.3052
- Myeov2 avg_logFC: −0.3052
- Myeov2 pct.1: 0.303
- Myh9 avg_logFC: 1.16
- Myl12a avg_logFC: 0.3908
- Myl12a pct.1: 0.461
- Myo1b A6logFC: 0.2624
- Myo1e avg_logFC: 0.6143
- Naa50 A6logFC: 0.2657
- Naa50 avg_logFC: 0.2657
- Naa50 pct.1: 0.444
- Naprt1 A6logFC: −0.3381
- Nars avg_logFC: 0.4378
- Nars pct.1: 0.606
- Ncl avg_logFC: 0.4845
- Ncl pct.1: 0.69
- Ndufa2 avg_logFC: −0.3965
- Ndufa2 pct.1: 0.492
- Ndufa3 avg_logFC: −0.4116
- Ndufa3 pct.1: 0.344
- Ndufa4 avg_logFC: −0.6831
- Ndufa5 A6logFC: −0.252
- Ndufa5 avg_logFC: −0.252
- Ndufa5 pct.1: 0.418
- Ndufa6 avg_logFC: −0.6136
- Ndufa7 avg_logFC: −0.5559
- Ndufa7 pct.1: 0.406
- Ndufa13 avg_logFC: −0.4388
- Ndufa13 pct.1: 0.549
- Ndufb3 A6logFC: −0.3272
- Ndufb6 avg_logFC: −0.5077
- Ndufb6 pct.1: 0.475
- Ndufb9 avg_logFC: −0.5038
- Ndufb9 pct.1: 0.661
- Ndufb10 A6logFC: −0.3004
- Ndufc2 avg_logFC: −0.4253
- Ndufc2 pct.1: 0.36
- Ndufs4 A6logFC: −0.3132
- Ndufs6 avg_logFC: −0.5379
- Ndufs6 pct.1: 0.482
- Ndufv2 A6logFC: −0.3276
- Ndufv2 avg_logFC: −0.3276
- Ndufv2 pct.1: 0.461
- Neat1 avg_logFC: 0.6374
- Neat1 pct.1: 0.31
- Nek7 A6logFC: 0.2911
- Nek7 avg_logFC: 0.2911
- Nek7 pct.1: 0.394
- Net1 A6logFC: 0.3479
- Nid1 avg_logFC: 0.3426
- Nit2 avg_logFC: −0.4859
- Nit2 pct.1: 0.301
- Nolc1 avg_logFC: 0.4722
- Nolc1 pct.1: 0.363
- Nop56 avg_logFC: 0.2657
- Nop56 pct.1: 0.282
- Nop58 avg_logFC: 0.6634
- Nploc4 A6logFC: 0.2918
- Nploc4 avg_logFC: 0.2918
- Nploc4 pct.1: 0.351
- Nqo2 A6logFC: −0.2678
- Nqo2 avg_logFC: −0.2678
- Nqo2 pct.1: 0.317
- Nr0b2 avg_logFC: −0.293
- Nr0b2 pct.1: 0.086
- Nr1i3 avg_logFC: −0.4127
- Nr1i3 pct.1: 0.165
- Nr2f6 avg_logFC: −0.3754
- Nr2f6 pct.1: 0.234
- Nrip1 avg_logFC: 0.2729
- Nrip1 pct.1: 0.246
- Nucks1 A6logFC: 0.3558
- Nudt4 A6logFC: 0.2542
- Nudt7 avg_logFC: −1.564
- Oaf avg_logFC: −0.7329
- Oat avg_logFC: −1.225
- PM20l1 avg_logFC: 0.3085
- PM20l1 pct.1: 0.372
- Pa2g4 A6logFC: 0.2893
- Pa2g4 avg_logFC: 0.2893
- Pa2g4 pct.1: 0.492
- Pabpc1 avg_logFC: 0.4101
- Pabpc1 pct.1: 0.697
- Pah avg_logFC: −0.5221
- Pak2 avg_logFC: 0.2815
- Pak2 pct.1: 0.308
- Papss2 A6logFC: −0.2545
- Papss2 avg_logFC: −0.2545
- Papss2 pct.1: 0.337
- Paqr9 A6logFC: −0.3323
- Park7 avg_logFC: −0.2602
- Park7 pct.1: 0.601
- Pbld1 avg_logFC: −0.4425
- Pbld1 pct.1: 0.315
- Pcbd1 avg_logFC: −0.6878
- Pck1 avg_logFC: −0.6522
- Pcm1 A6logFC: 0.2654
- Pcm1 avg_logFC: 0.2654
- Pcm1 pct.1: 0.274
- Pde3b A6logFC: −0.259
- Pde3b avg_logFC: −0.259
- Pde3b pct.1: 0.243
- Pdia4 avg_logFC: −0.2719
- Pdia4 pct.1: 0.43
- Pdia6 avg_logFC: −0.39
- Pdia6 pct.1: 0.47
- Pdzd8 A6logFC: 0.2863
- Pdzd8 avg_logFC: 0.2863
- Pdzd8 pct.1: 0.36
- Pecr avg_logFC: −0.3981
- Pecr pct.1: 0.446
- Pet100 A6logFC: −0.28
- Pfkfb2 avg_logFC: 0.29
- Pfkfb2 pct.1: 0.26
- Pgls A6logFC: −0.2747
- Pgls avg_logFC: −0.2747
- Pgls pct.1: 0.22
- Phf20l1 A6logFC: 0.3085
- Phlda1 avg_logFC: 0.5492
- Pi4k2a A6logFC: 0.3536
- Picalm avg_logFC: 0.7545
- Pigr avg_logFC: 0.3487
- Pigr pct.1: 0.947
- Pkp4 A6logFC: 0.323
- Pkp4 avg_logFC: 0.323
- Pkp4 pct.1: 0.401
- Pla2g7 avg_logFC: 0.2823
- Pla2g7 pct.1: 0.119
- Plbd2 A6logFC: 0.2649
- Plbd2 avg_logFC: 0.2649
